Measured values: US20220186240A1, “FLAVONE 7-O-METHYLTRANSFERASE GENE AND USE FOR SAME” (Suntory Holdings Limited, priority 2019, published 2022)

Legend:
[1] = test system: DN134067 (CcFn-7OMT, flavone 7-O-methyltransferase); assay: Enzyme activity measurement with crude protein solution extract from E. coli expressing DN134067, HPLC of reaction solution; assay type: biochemical, oboushibana (Commelina communis var. hortensis); settings: for peak detected in the enzyme reaction solution / Enzyme reaction synthesis product: compound as substrate; for peak detected in the enzyme reaction solution: HPLC; for Enzyme reaction synthesis product: 30° C., SAM, ND = no product peak
Text: With DN134067 as a candidate protein having activity of transferring a methyl group to the hydroxyl group at position 7 of flavone C-glycoside, and using pET15b (Novagen), an E. coli expression vector containing the full-length DN134067 (pET15b-DN134067) was constructed according to the manufacturer's recommended protocol.
Plasmid pET15b-DN134067 was introduced into E. coli BL21 using One Shot BL21(DE3) (Invitrogen), according to the manufacturer's recommended protocol, to obtain E. coli transformants. The E. coli were cultured using an Overnight Express Autoinduction System 1 (Novagen), according to the manufacturer's recommended protocol. The E. coli transformants were cultured at 37° C. (approximately 4 hours) with 2 ml of prepared culture solution, to an OD600 value of 0.5. The E. coli solution was added as a preculturing solution to 50 ml of culture solution, and main culturing was carried out for two nights at 16° C.
The E. coli solution cultured for two nights was centrifuged (3000 rpm, 4° C., 15 minutes), and the collected cells were suspended in sonic buffer (composition: 40 mM KPB (pH7.5), 1 mM dithiothreitol, 50 μM amidinophenylmethanesulfonyl fluoride hydrochloride, […], 2 mM MgCl2, 1 μM S-adenosylmethionine (SAM)). A 5 ml portion of sonic buffer was added for each 1 g of E. coli. The suspended E. coli cells were crushed by ultrasonic treatment and then centrifuged (15,000 rpm, 4° C., 10 minutes), and the supernatant was recovered. The supernatant was used as a crude protein solution extract from E. coli expressing DN134067. An Avanti HP-26XP (rotor: JA-2) (Beckman Coulter) was used for the centrifugation.
After mixing 8 μl of 1 mM isovitexin (dissolved in 50% aqueous acetonitrile containing 0.1% TFA), 20 μl of 10 mM SAM, 20 μl of 10 mM MgCl2 and 10 μl of 1 M KPB (pH 7.5) and adjusting to 58 μl with water, the mixture was kept at 30° C. for 10 minutes, and then 2 μl of the crude protein solution extract from DN134067-expressing E. coli was added and enzyme reaction was carried out (30 minutes at 30° C.). Next, 100 μl of stop buffer (aqueous 90% acetonitrile solution containing 0.1% TFA) was added to stop the enzyme reaction, and the enzyme reaction solution was analyzed by high-performance liquid chromatography (Prominence by Shimadzu Corp.). Detection was at 330 nm using a Shimadzu PDA SPD-M20A as the detector. The column used was a Shim-Pack ODS 150 mm*4.6 mm (Shimadzu Corp.). Elution was performed using solution A (0.1% TFA aqueous solution) and solution B (aqueous 90% acetonitrile solution containing 0.1% TFA). The elution was with a 20-minute linear concentration gradient from a 9:1 mixture to a 8:2 mixture, a 15-minute linear concentration gradient from a 8:2 mixture to a 2:8 mixture and a 5-minute linear concentration gradient from a 2:8 mixture to a 0:10 mixture, followed by elution with a 0:10 mixture for 1 minute. The flow rate was 0.6 ml/min. As a control, the same experiment was carried out using a crude protein solution extract from E. coli in which pET15b vector without the insert had been introduced.
When enzyme reaction was conducted using an anthocyanin (delphinidin 3-glycoside, petunidin 3-glycoside or delphinidin 3,5-diglycoside) as the substrate, the enzyme reaction conditions were 30° C., 15 minutes, and an aqueous 90% acetonitrile solution containing 0.1% TFA and 0.24 N hydrochloric acid was used as the stop buffer. A Shimadzu PDA SPD-M20A detector was used for detection at 520 nm during analysis of the enzyme reaction solution by high-performance liquid chromatography (Prominence (Shimadzu Corp.)). The column used was a Shodex RSpak DE-413 L (Shodex). Elution was performed using solution A (0.1% TFA aqueous solution) and solution B (aqueous 90% acetonitrile solution containing 0.1% TFA). Elution was performed with a 15-minute linear concentration gradient from an 8:2 mixture to a 0:10 mixture, and subsequent elution for 5 minutes with a 0:10 mixture. […]

[2] = Simulation of flavone C-glycoside (isoorientin, swertisin) copigment effect with malvin, absorption spectra; assay type: physicochemical; settings: for Absorption maximum of malvin solution with addition of flavone C-glycoside (λmax): flavone C-glycoside at 10-equivalent molar concentration, pH 5.0, malvin 0.5 mM
Procedure: An anthocyanin (malvin) and flavone C-glycoside were prepared to simulate the copigment effect of the flavone C-glycoside on malvin. The malvin (malvidin 3,5-diglycoside) and flavone C-glycosides (isoorientin, swertisin) used in this experiment were purchased from Nacalai Tesque, Inc.
Each flavone C-glycoside (isoorientin or swertisin) was added to the malvin at 10-equivalent molar concentration in a buffering solution at pH 5.0, and the absorption spectra were measured. The malvin concentration was 0.5 mM.
Addition of the flavone C-glycoside increased the absorbance of the malvin solution, shifting the absorption maximum (λmax) toward the long wavelength end. The absorption maximum was shifted further toward the long wavelength end with addition of swertisin than with isoorientin.

[3] = Simulation of flavone C-glycoside (isovitexin) copigment effect with anthocyanin, absorption spectra; assay type: physicochemical; settings: for Absorption maximum of anthocyanin solution with addition of flavone C-glycoside (λmax): pH 4.5, anthocyanin 0.5 mM
Procedure: An anthocyanin and flavone C-glycoside were prepared to simulate the copigment effect of flavone C-glycoside on anthocyanin. The malvin (malvidin 3,5-diglycoside) and isovitexin (apigenin 6-C-glycoside) used for the experiment were purchased from Funakoshi Corp.
The flavone C-glycoside (isovitexin) was added to the anthocyanin (malvin) at 0, 2 and 4-equivalent molar concentrations in a buffering solution at pH 4.5, and the absorption spectra were measured. The anthocyanin concentration was 0.5 mM.
Addition of the flavone C-glycoside increased the absorbance of the anthocyanin solution, shifting the absorption maximum (λmax) toward the long wavelength end with increasing addition of flavone C-glycoside.

Molecule: Delphinidin 3-glycoside
- peak detected in the enzyme reaction solution [1]: no peak was detected in the enzyme reaction solution other than for the substrate

Molecule: O=c1cc(-c2ccc(O)c(O)c2)oc2cc(O)c([C@@H]3O[C@H](CO)[C@@H](O)[C@H](O)[C@H]3O)c(O)c12 [Isoorientin, luteolin 6-C-glycoside]
- Absorption maximum of malvin solution with addition of flavone C-glycoside (λmax) [2]: 575 nm
- Enzyme reaction synthesis product [1]: Swertiajaponin
- peak detected in the enzyme reaction solution [1]: a peak was detected for swertiajaponin

Molecule: Petunidin 3-glycoside
- peak detected in the enzyme reaction solution [1]: no peak was detected in the enzyme reaction solution other than for the substrate

Molecule: COc1cc2oc(-c3ccc(O)cc3)cc(=O)c2c(O)c1[C@@H]1O[C@H](CO)[C@@H](O)[C@H](O)[C@H]1O [Swertisin, apigenin 7-methyl-6-C-glycoside]
- copigment effect with malvin ([2]; compared with isoorientin, 10 equivalents, pH 5.0): higher copigment effect with malvin
- Absorption maximum of malvin solution with addition of flavone C-glycoside (λmax) [2]: 579 nm

Molecule: COc1cc(-c2[o+]c3cc(O)cc(O[C@@H]4O[C@H](CO)[C@@H](O)[C@H](O)[C@H]4O)c3cc2O[C@@H]2O[C@H](CO)[C@@H](O)[C@H](O)[C@H]2O)cc(OC)c1O [Malvin, malvidin 3,5-diglycoside]
- Absorption maximum of malvin solution (λmax) ([2]; malvin alone, pH 5.0, 0.5 mM): 529 nm
- Absorption maximum of anthocyanin solution with addition of flavone C-glycoside (λmax) ([3]; 0 equivalent isovitexin): 531.8 nm
- Absorption maximum of anthocyanin solution with addition of flavone C-glycoside (λmax) ([3]; 2 equivalents isovitexin): 566.4 nm
- Absorption maximum of anthocyanin solution with addition of flavone C-glycoside (λmax) ([3]; 4 equivalents isovitexin): 573.0 nm

Molecule: Luteolin 4′-glycoside
- peak detected in the enzyme reaction solution [1]: no peak was detected in the enzyme reaction solution other than for the substrate

Molecule: O=c1cc(-c2ccc(O)cc2)oc2cc(O)cc(O)c12 [Apigenin]
- peak detected in the enzyme reaction solution [1]: no peak was detected in the enzyme reaction solution other than for the substrate

Molecule: O=c1cc(-c2ccc(O)c(O)c2)oc2cc(O)cc(O)c12 [Luteolin]
- peak detected in the enzyme reaction solution [1]: no peak was detected in the enzyme reaction solution other than for the substrate

Molecule: isovitexin 4′-glycoside [Saponarin]
- peak detected in the enzyme reaction solution [1]: no peak was detected in the enzyme reaction solution other than for the substrate

Molecule: Apigenin 4′-glycoside
- peak detected in the enzyme reaction solution [1]: no peak was detected in the enzyme reaction solution other than for the substrate

Molecule: Delphinidin 3,5-diglycoside
- peak detected in the enzyme reaction solution [1]: no peak was detected in the enzyme reaction solution other than for the substrate

Molecule: O=c1cc(-c2ccc(O)cc2)oc2cc(O)c([C@@H]3O[C@H](CO)[C@@H](O)[C@H](O)[C@H]3O)c(O)c12 [Isovitexin, apigenin 6-C-glycoside]
- copigment effect with malvin ([3]; pH 4.5, malvin 0.5 mM): copigment effect of isovitexin is exhibited with malvin
- Enzyme reaction synthesis product [1]: Swertisin
- peak detected in the enzyme reaction solution [1]: a peak for swertisin

B1: DN134067: oboushibana-derived flavone 7-O-methyltransferase (SEQ ID NO: 34/35), expressed in E. coli (protein)
chain: MEAQEDNAYMQALELQTGIDMNMTLRAAIELGILETIVGAGEGAKLAAGEISGHLPTANPEAPNMVDRMLRLLAAHNIVTCVVEGGVDGRPECKYGAAPVSKYFTGEGEMSLARKVLLATDMVTFQSWLHLKDSVINGGNAFHTAFNMSLFDKNKVDSRFNNVFNTSMKSVSLFAINKFINTYDGFSDIQVLVDVGGGIGTALYAITSKFPHIKGINFDLPQVISTAQTSYPEMEHVSGDMFASVPKGDAILLKHVLHNWEDESCLKILKTCWNSLPYKGKVIIVESVLPKAPGVSSASKYFTCLDVIMMAHFGAKLRTIEEFKELCNNAGFSSFNATYFHTYHCIMEFTK
modifications: Commelina communis var. hortensis
- methyl group-transfer activity ([1]; substrate comparison): most powerful methyl group-transfer activity for isovitexin
